Experimental data published in patent publication US20240238423A9, “TETRAHYDROISOQUINOLINE HETEROBIFUNCTIONAL BCL-XL DEGRADERS” (Treeline Biosciences, Inc., priority 2022, published 2024).
Where two headings read alike, the source gives them in different places.

Biological target: T1, Human BCL-XL protein (N-terminal HiBiT tagged BCL-XL in HT1080 cells) (Homo sapiens, UniProt Q07817)
T1 construct: expressed in transfected cells; host or cells: HT-1080 (ATCC CCL-121), stably transduced with lentivirus pLV-UBC-N-HiBiT-BCL-XL-PGK-puro and selected with puromycin
Test: HiBiT based degradation assay
Type: cell-based
Conditions: HT1080 cells expressing HiBiT-BCL-XL; for Ymin (24 h) / Ymin (6 h): BCL-XL degradation normalized with DMSO control; for DC50: BCL-XL degradation
Procedure, shortened: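 HT1080 cells stably transduced by lentivirus with N-terminally HiBiT-tagged human BCL-XL and kept under 1 μg/mL puromycin selection were seeded at three thousand cells per well in 40 μL RPMI 1640 into 384-well plates pre-spotted with compounds across a concentration range. Luminescence was read on a PHERAstar FSX, normalized to DMSO, and fitted with a four-parameter logistic model.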

T1 sequence (Q07817 whole entry): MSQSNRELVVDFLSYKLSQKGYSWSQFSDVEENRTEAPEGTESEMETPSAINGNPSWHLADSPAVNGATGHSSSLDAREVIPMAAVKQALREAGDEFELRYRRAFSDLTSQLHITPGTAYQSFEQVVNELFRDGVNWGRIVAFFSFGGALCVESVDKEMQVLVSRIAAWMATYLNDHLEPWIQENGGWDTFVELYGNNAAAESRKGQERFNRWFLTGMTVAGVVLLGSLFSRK

Compound | Ymin (24 h) | DC50 (24 h, read-out: EC50 (24 h)) | Ymin (6 h) | DC50 (6 h, read-out: EC50 (6 h))
Cc1c(OCCCN2CCN(CC(=O)Nc3cccc4c(C5CCC(=O)NC5=O)nn(C)c34)C[C@H]2C(F)(F)F)cccc1-c1ccc(N2CCc3cccc(C(=O)Nc4nc5ccccc5s4)c3C2)nc1C(=O)O (stereo partly drawn) [Compound 246b, 6-(8-(benzo[d]thiazol-2-ylcarbamoyl)-3,4-dihydroisoquinolin-2(1H)-yl)-3-(3-(3-((2S)-4-(2-((3-(2,6-dioxopiperidin-3-yl)-1-methyl-1H-indazol-7-yl)amino)-2-oxoethyl)-2-(trifluoromethyl)piperazin-1-yl)propoxy)-2-methylphenyl)picolinic acid] | B (50% ≤ Ymin < 70%) | < 0.1 µM |  | 
Cc1c(OCCCCCCCCN2CCN(c3ccc4c(C5CCC(=O)NC5=O)nn(C)c4c3)CC2)cccc1-c1ccc(N2CCc3cccc(C(=O)Nc4nc5ccccc5s4)c3C2)nc1C(=O)O (stereo not drawn) [Compound 205, 6-[8-(1,3-benzothiazol-2-ylcarbamoyl)-3,4-dihydro-1H-isoquinolin-2-yl]-3-[3-[8-[4-[3-(2,6-dioxo-3-piperidyl)-1-methyl-indazol-6-yl]piperazin-1-yl]octoxy]-2-methyl-phenyl]pyridine-2-carboxylic acid] | A (Ymin < 50%) | < 0.1 µM | B (50% ≤ Ymin < 70%) | < 0.1 µM
Cc1c(O[C@H]2CC[C@H](CCCCN3CCN(c4cccc5c(C6CCC(=O)NC6=O)nn(C)c45)CC3)CC2)cccc1-c1ccc(N2CCc3cccc(C(=O)Nc4nc5ccccc5s4)c3C2)nc1C(=O)O (stereo partly drawn) [Compound 204a, 6-(8-(benzo[d]thiazol-2-ylcarbamoyl)-3,4-dihydroisoquinolin-2(1H)-yl)-3-(3-(((1s,4r)-4-(4-(4-(3-(2,6-dioxopiperidin-3-yl)-1-methyl-1H-indazol-7-yl)piperazin-1-yl)butyl)cyclohexyl)oxy)-2-methylphenyl)picolinic acid] | B (50% ≤ Ymin < 70%) | < 0.1 µM |  | 
Cc1c(O[C@H]2CC[C@H](CC[C@@H](C)N3CCN(c4ccc5c(C6CCC(=O)NC6=O)nn(C)c5c4)CC3)CC2)cccc1-c1ccc(N2CCc3cccc(C(=O)Nc4nc5ccccc5s4)c3C2)nc1C(=O)O (single isomer, unassigned) [Compound 281b] | A (Ymin < 50%) | < 0.1 µM |  | 
Cc1c(O[C@H]2CC[C@H](CCC(=O)N3CCN(c4cccc5c(C6CCC(=O)NC6=O)nn(C)c45)CC3)CC2)cccc1-c1ccc(N2CCc3cccc(C(=O)Nc4nc5ccccc5s4)c3C2)nc1C(=O)O (stereo partly drawn) [Compound 146a, 6-(8-(benzo[d]thiazol-2-ylcarbamoyl)-3,4-dihydroisoquinolin-2(1H)-yl)-3-(3-(((1r,4r)-4-(3-(4-(3-(2,6-dioxopiperidin-3-yl)-1-methyl-1H-indazol-7-yl)piperazin-1-yl)-3-oxopropyl)cyclohexyl)oxy)-2-methylphenyl)picolinic acid] | A (Ymin < 50%) | < 0.1 µM | A (Ymin < 50%) | 0.1 to 1 µM
Cc1c(O[C@H]2CC[C@H](CCCN3CCN(c4ccc5c(C6CCC(=O)NC6=O)nn(C)c5c4)CC3(C)C)CC2)cccc1-c1ccc(N2CCc3cccc(C(=O)Nc4nc5ccccc5s4)c3C2)nc1C(=O)O (stereo partly drawn) [Compound 336a, 6-(8-(benzo[d]thiazol-2-ylcarbamoyl)-3,4-dihydroisoquinolin-2(1H)-yl)-3-(3-(((1s,4r)-4-(3-(4-(3-(2,6-dioxopiperidin-3-yl)-1-methyl-1H-indazol-6-yl)-2,2-dimethylpiperazin-1-yl)propyl)cyclohexyl)oxy)-2-methylphenyl)picolinic acid] | A (Ymin < 50%) | < 0.1 µM |  | 
Cc1c(OCCCCC2CCN(CC3CCN(c4cccc5c(C6CCC(=O)NC6=O)nn(C)c45)CC3)CC2)cccc1-c1ccc(N2CCc3cccc(C(=O)Nc4nc5ccccc5s4)c3C2)nc1C(=O)O (stereo not drawn) [Compound 285, 6-[8-(1,3-benzothiazol-2-ylcarbamoyl)-3,4-dihydro-1H-isoquinolin-2-yl]-3-[3-[4-[1-[[1-[3-(2,6-dioxo-3-piperidyl)-1-methyl-indazol-7-yl]-4-piperidyl]methyl]-4-piperidyl]butoxy]-2-methyl-phenyl]pyridine-2-carboxylic acid] | A (Ymin < 50%) | < 0.1 µM |  | 
Cc1c(O[C@H]2CC[C@H](CC(F)(F)C(=O)N3CCN(c4ccc5c(C6CCC(=O)NC6=O)nn(C)c5c4)CC3)CC2)cccc1-c1ccc(N2CCc3cccc(C(=O)Nc4nc5ccccc5s4)c3C2)nc1C(=O)O (stereo partly drawn) [Compound 239a, 6-(8-(benzo[d]thiazol-2-ylcarbamoyl)-3,4-dihydroisoquinolin-2(1H)-yl)-3-(3-(((1r,4r)-4-(3-(4-(3-(2,6-dioxopiperidin-3-yl)-1-methyl-1H-indazol-6-yl)piperazin-1-yl)-2,2-difluoro-3-oxopropyl)cyclohexyl)oxy)-2-methylphenyl)picolinic acid] | B (50% ≤ Ymin < 70%) | < 0.1 µM |  | 
Cc1cc(OC[C@H](C)CC2CCN(CC(=O)Nc3ccc4c(C5CCC(=O)NC5=O)nn(C)c4c3)CC2)ccc1-c1ccc(N2CCc3cccc(C(=O)Nc4nc5ccccc5s4)c3C2)nc1C(=O)O (single isomer, unassigned) [Compound 271a] | A (Ymin < 50%) | < 0.1 µM |  | 

More lines, now with the values ahead:

Ymin (24 h) | DC50 (24 h, read-out: EC50 (24 h)) | Ymin (6 h) | DC50 (6 h, read-out: EC50 (6 h)) | Compound
A (Ymin < 50%) | < 0.1 µM |  |  | Cc1c(O[C@H]2CC[C@H](CCCN3CC[C@@H](c4ccc5c(C6CCC(=O)NC6=O)nn(C)c5c4)C3)CC2)cccc1-c1ccc(N2CCc3cccc(C(=O)Nc4nc5ccccc5s4)c3C2)nc1C(=O)O (single isomer, unassigned) [Compound 331b]
B (50% ≤ Ymin < 70%) | < 0.1 µM |  |  | Cc1c(Oc2ccc(CCCC(=O)N3CCN(c4ccc5c(C6CCC(=O)NC6=O)nn(C)c5c4)CC3)cc2)cccc1-c1ccc(N2CCc3cccc(C(=O)Nc4nc5ccccc5s4)c3C2)nc1C(=O)O (stereo not drawn) [Compound 178, 6-(8-(benzo[d]thiazol-2-ylcarbamoyl)-3,4-dihydroisoquinolin-2(1H)-yl)-3-(3-(4-(4-(4-(3-(2,6-dioxopiperidin-3-yl)-1-methyl-1H-indazol-6-yl)piperazin-1-yl)-4-oxobutyl)phenoxy)-2-methylphenyl)picolinic acid]
B (50% ≤ Ymin < 70%) | < 0.1 µM | B (50% ≤ Ymin < 70%) | 0.1 to 1 µM | Cc1c(OCCCN2CCN(CCOc3ccc4c(C5CCC(=O)NC5=O)nn(C)c4c3)CC2)cccc1-c1ccc(N2CCc3cccc(C(=O)Nc4nc5ccccc5s4)c3C2)nc1C(=O)O (stereo not drawn) [Compound 136, 6-(8-(benzo[d]thiazol-2-ylcarbamoyl)-3,4-dihydroisoquinolin-2(1H)-yl)-3-(3-(3-(4-(2-((3-(2,6-dioxopiperidin-3-yl)-1-methyl-1H-indazol-6-yl)oxy)ethyl)piperazin-1-yl)propoxy)-2-methylphenyl)picolinic acid]
A (Ymin < 50%) | < 0.1 µM |  |  | Cc1c(OC[C@@H](C)CC2CCN(CC(=O)Nc3ccc4c(C5CCC(=O)NC5=O)nn(C)c4c3)CC2)cccc1-c1ccc(N2CCc3cccc(C(=O)Nc4nc5ccccc5s4)c3C2)nc1C(=O)O (single isomer, unassigned) [Compound 263b]
A (Ymin < 50%) | < 0.1 µM | B (50% ≤ Ymin < 70%) | < 0.1 µM | Cc1c(OCC[C@H]2CCN(CC(=O)Nc3ccc4c(C5CCC(=O)NC5=O)nn(C)c4c3)C2)cccc1-c1ccc(N2CCc3cccc(C(=O)Nc4nc5ccccc5s4)c3C2)nc1C(=O)O (stereo partly drawn) [Compound 219b, 6-[8-(1,3-benzothiazol-2-ylcarbamoyl)-3,4-dihydro-1H-isoquinolin-2-yl]-3-[3-[2-[(3R)-1-[2-[[3-(2,6-dioxo-3-piperidyl)-1-methyl-indazol-6-yl]amino]-2-oxo-ethyl]pyrrolidin-3-yl]ethoxy]-2-methyl-phenyl]pyridine-2-carboxylic acid]
A (Ymin < 50%) | < 0.1 µM |  |  | Cc1c(OCCC2CCN(CC3CCN(c4ccc5c(C6CCC(=O)NC6=O)nn(C)c5c4)CC3)CC2)cccc1-c1ccc(N2CCc3cccc(C(=O)Nc4nc5ccccc5s4)c3C2)nc1C(=O)O (stereo not drawn) [Compound 258, 6-[8-(1,3-benzothiazol-2-ylcarbamoyl)-3,4-dihydro-1H-isoquinolin-2-yl]-3-[3-[2-[1-[[1-[3-(2,6-dioxo-3-piperidyl)-1-methyl-indazol-6-yl]-4-piperidyl]methyl]-4-piperidyl]ethoxy]-2-methyl-phenyl]pyridine-2-carboxylic acid]
A (Ymin < 50%) | < 0.1 µM |  |  | Cc1c(O[C@H]2CC[C@H](CCCN3CC[C@H](c4ccc5c(C6CCC(=O)NC6=O)nn(C)c5c4)C3)CC2)cccc1-c1ccc(N2CCc3cccc(C(=O)Nc4nc5ccccc5s4)c3C2)nc1C(=O)O (single isomer, unassigned) [Compound 331a]
B (50% ≤ Ymin < 70%) | < 0.1 µM |  |  | Cc1c(OCCCN2CCN(CC(=O)Nc3ccc4c(C5CCC(=O)NC5=O)nn(C)c4c3)C[C@@H]2C(F)(F)F)cccc1-c1ccc(N2CCc3cccc(C(=O)Nc4nc5ccccc5s4)c3C2)nc1C(=O)O (stereo partly drawn) [Compound 245a, 6-(8-(benzo[d]thiazol-2-ylcarbamoyl)-3,4-dihydroisoquinolin-2(1H)-yl)-3-(3-(3-((2R)-4-(2-((3-(2,6-dioxopiperidin-3-yl)-1-methyl-1H-indazol-6-yl)amino)-2-oxoethyl)-2-(trifluoromethyl)piperazin-1-yl)propoxy)-2-methylphenyl)picolinic acid]
